{"source": "patent US20030228402A1", "about": "“Compositions and methods for preservation of food” (priority 2002, published 2003)", "key": {"[1]": {"experiment": "Solution and suspension levels of terpenes in water", "source_text": "The terpene and water were blended in a household blender for 30 seconds.\nExamples of these levels are as follows."}, "E. coli strain AW574": {"test_system": "E. coli strain AW574", "experiment": "E. coli growth (O.D.) with single or combined terpenes", "format": "cell-based", "conditions": "single terpene 2 μMol; 24 hours", "method": "E. coli strain AW574 was grown in tryptone broth to an exponential growth phase (O.D. between 0.4 and 1.0 at 590 nm). One tenth of this growth was inoculated to 10 ml of tryptone broth followed by the addition of individual terpenes or as indicated on Table 8; then incubated for 24 hours at 35-37° C., and the O.D. determined in each tube. The concentration of terpenes was 1 or 2 μMol. Each treatment was repeated in triplicate. The results are expressed as percentage bacterial growth as compared to the control treatment.\nE. coli strain AW574 was grown in tryptone broth to an exponential growth phase (O.D. between 0.4 and 1.0 at 590 nm).\nOne tenth of this growth was inoculated to 10 ml of tryptone broth followed by the addition of individual terpenes or as indicated on Table 18; then incubated for 24 hours at 35-37° C. and the O.D. determined in each tube.\nThe concentration of terpenes was 1 or 2 μMol. Each treatment was repeated in triplicate.\nThe results are expressed as percentage bacterial growth as compared to the control treatment."}, "Mycoplasma pneumoniae": {"test_system": "Mycoplasma pneumoniae", "experiment": "Killing of Mycoplasma pneumoniae, color change of SP4 medium", "format": "cell-based", "conditions": "for killing effect (color change of first tube): three days after the 10-fold dilution", "method": "This mixture was then used to make concentrations of 2500 ppm in sterile phosphate buffer saline (PBS) by blending the mixture in PBS for 40 seconds. […] PBS containing 25 ppm Tween® 80 or PBS alone was used to treat cells suspension as controls. […] After 40 hours of treatment, 10-fold serial dilution was performed to 10 (−10) by first taking 0.1 mL of the treated culture suspension was added into 0.9 mL of fresh SP4 (Whitcomb (1983); SP4 media is commercially available (Remel, Lenexa, Kans., USA)). All the tubes were then incubated at 37° C., and a color change of the medium was used for the indication of the cells that either were killed or survived from the treatment. Color change was from red to yellow because Mycoplasma pneumoniae produces acid during its growth. All the treatments were performed in duplicate."}, "[2]": {"test_system": "E. coli strains AW574 or AW405", "experiment": "Lysis of E. coli by terpenes (galactosidase activity, ONPG)", "format": "cell-based", "source_text": "Lysis of the cell membrane was monitored by the determination of galactosidase activity. B-galactosidase is a well-characterized cytosolic enzyme in bacteria. This enzyme is inducible in the presence of isopropyl-1-thiogalactosidase (IPTG) and assayed calorimetrically with substrate o-nitro-phenyl-B-D-galactoside (ONPG). ONPG is cleaved to release o-nitrophenol which has a peak absorbance at 420 nm.\nSince intact E. coli is impermeable to both ONPG and the enzyme, the cells have to be lysed prior to enzymatic assay. Therefore, the ability of terpenes to lyse E. coli can be measured with this enzymatic assay and compared to known lysing agents.\nThe procedure used was as follows: E. coli strains AW574 or AW405 were cultured overnight in 10 ml tryptone broth with […] at 35° C. Cells were allowed to grow after an absorbance equal to 0.9 was reached.\nCells were harvested, washed with phosphate buffer and resuspended to an absorbance equal to 0.5.\n0.1 ml of the bacteria culture was added to 0.9 ml of buffer, warmed to 30° C., and then 80 μl of terpenes (85% terpenes and 15% polysorbate-80), 80 μl water (background), or 40 μl chloroform plus 40 μl 1% SDS in water (positive control) were added.\nAfter the addition of the lysing agents the tubes were mixed for 10 seconds, and 0.2 ml of ONPG (4 mg/ml water) was added, then incubated for 5 minutes. The 5 enzyme activity was stopped with 0.5 ml of 1 M sodium carbonate. After being centrifuged for 3 minutes at 1,500×g, supernatant was transferred to cuvettes and read at 420 nm.\nThe relative degree of lysis caused by terpenes was calculated as follows: 100× (O.D. terpenes—O.D. water)/(O.D. chloroform—O.D. water)."}, "erythrocytes": {"test_system": "erythrocytes", "format": "cell-based", "conditions": "20 min", "method": "These mixtures were incubated for 20 minutes."}, "[3]": {"experiment": "Break down of terpenes in the presence of oxygen / potency of solution", "format": "physicochemical", "conditions": "500 ppm solution", "source_text": "Terpenes will break down in the presence of oxygen. Citral, for example, is an aldehyde and will decay (oxygenate) over a period of days."}, "E. coli": {"test_system": "E. coli", "conditions": "cited from earlier work"}, "[4]": {"conditions": "62.5, 125 and 250 ppm, 40 hours treatment"}}, "note": "Where two headings read alike, the source gives them in different places.", "data": [{"compound": "CC(=O)/C=C/C1=C(C)CCCC1(C)C", "note": "[b-ionone]", "values": [{"measurement": "Level (maximum level of terpene solubilized, solution level)", "setting": "[1]", "result": 500, "unit": "ppm"}, {"measurement": "% growth (bacterial growth as compared to the control treatment)", "setting": "E. coli strain AW574", "result": 84.00, "unit": "%"}, {"measurement": "killing effect (color change of first tube)", "setting": "Mycoplasma pneumoniae; [4]", "result": "killing effect"}, {"measurement": "tubes of the 10-fold dilution series that changed color", "setting": "Mycoplasma pneumoniae; 62.5 ppm, 6 days after the 10-fold dilution", "result": "only the first tube"}, {"measurement": "killing of all cells", "setting": "Mycoplasma pneumoniae; 125 and 250 ppm, 40 hours treatment, 6 days after the 10-fold dilution", "result": "may have completely killed all cells"}, {"measurement": "Relative lysis %", "setting": "[2]; 0.0308 μM", "result": 1.3, "unit": "%"}, {"measurement": "Relative lysis %", "setting": "[2]; 0.308 μM", "result": 4.78, "unit": "%"}, {"measurement": "Relative lysis %", "setting": "[2]; 3.08 μM", "result": 23, "unit": "%"}, {"measurement": "Relative lysis %", "setting": "[2]; 30.8 μM", "result": 44, "unit": "%"}, {"measurement": "Relative lysis %", "setting": "[2]; 308 μM", "result": 52, "unit": "%"}]}, {"compound": "C=C(C)C1CC=C(C)C(=O)C1", "note": "(stereo not shown) [Carvone]", "values": [{"measurement": "Level (maximum level of terpene solubilized, solution level)", "setting": "[1]; true solution in water without surfactant, high shear mixing", "result": 500, "unit": "ppm"}, {"measurement": "% growth (bacterial growth as compared to the control treatment)", "setting": "E. coli strain AW574", "result": 63.00, "unit": "%"}, {"measurement": "Relative lysis %", "setting": "[2]; 404 μM", "result": 3.2, "unit": "%"}, {"measurement": "Relative lysis %", "setting": "[2]; 4,040 μM", "result": 22, "unit": "%"}, {"measurement": "Relative lysis %", "setting": "[2]; 40,400 μM", "result": 54, "unit": "%"}]}, {"compound": "Terpeniol", "values": [{"measurement": "Level (maximum level of terpene solubilized, solution level)", "setting": "[1]", "result": 500, "unit": "ppm"}]}, {"compound": "CC(C)=CCCC(C)=CC=O", "note": "[Citral, 3,7-dimethyl-2,6-octadien-1-al]", "values": [{"measurement": "concentration that will lyse human erythrocytes", "setting": "erythrocytes", "result": "approximately 1000 ppm"}, {"measurement": "time in which the solution will lose half its potency", "setting": "[3]", "result": "2-3 weeks"}, {"measurement": "citral in growth media with bactericidal effect", "setting": "E. coli", "result": 0.08, "unit": "%"}]}, {"compound": "CC(C)=CCC/C(C)=C/CO", "note": "[Geraniol]", "values": [{"measurement": "Level (maximum level of terpene solubilized, solution level)", "setting": "[1]", "result": 500, "unit": "ppm"}, {"measurement": "% growth (bacterial growth as compared to the control treatment)", "setting": "E. coli strain AW574", "result": 54.00, "unit": "%"}, {"measurement": "Relative lysis %", "setting": "[2]; 3.63 μM", "result": 2.4, "unit": "%"}, {"measurement": "Relative lysis %", "setting": "[2]; 36.3 μM", "result": 4, "unit": "%"}, {"measurement": "Relative lysis %", "setting": "[2]; 363 μM", "result": 34, "unit": "%"}, {"measurement": "Relative lysis %", "setting": "[2]; 3,630 μM", "result": 98, "unit": "%"}, {"measurement": "Relative lysis %", "setting": "[2]; 36,300 μM", "result": 96, "unit": "%"}]}, {"compound": "L-carvone", "values": [{"measurement": "killing effect (color change of first tube)", "setting": "Mycoplasma pneumoniae; [4]", "result": "no killing effects"}, {"measurement": "tubes of the 10-fold dilution series that changed color", "setting": "Mycoplasma pneumoniae; 62.5, 125 and 250 ppm, 6 days after the 10-fold dilution", "result": "second and third tube"}]}]}
